Laboratory results reported in patent US9611267B2, “Substituted tricyclic compounds as FGFR inhibitors” (Incyte Corporation, priority 2012, dated 2017).

Tests used:
Format in all cases: biochemical
FGFR1 = FGFR1 (Homo sapiens (Human), UniProt P11362); assay: FGFR enzymatic assay (FRET peptide phosphorylation), FGFR1; conditions: FGFR1 enzyme 0.02 nM, ATP 210 μM
Experimental: (§1) The inhibitor potency of the exemplified compounds was measured in an enzyme assay that measures peptide phosphorylation using FRET measurements to detect product formation. Inhibitors were serially diluted in DMSO and a volume of 0.5 μL was transferred to the wells of a 384-well plate. For FGFR3, a 10 μL volume of FGFR3 enzyme (Millipore) diluted in assay buffer (50 mM HEPES, 10 mM MgCl2, 1 mM EGTA, 0.01% Tween-20, 5 mM DTT, pH 7.5) was added to the plate and pre-incubated for 5-10 minutes. Appropriate controls (enzyme blank and enzyme with no inhibitor) were included on the plate. […] The plate was incubated at 25° C. for 1 hr. […] The plate was allowed to equilibrate for ˜1 hr before scanning the wells on a PheraStar plate reader (BMG Labtech).
(§2) The enzymes were purchased from Millipore or Invitrogen.
(§3) GraphPad prism3 was used to analyze the data. The IC50 values were derived by fitting the data to the equation for a sigmoidal dose-response with a variable slope. Y=Bottom+(Top−Bottom)/(1+10^((LogIC50−X)*HillSlope)) where X is the logarithm of concentration and Y is the response.

FGFR2 = FGFR2 (Homo sapiens (Human), UniProt P21802); assay: FGFR enzymatic assay (FRET peptide phosphorylation), FGFR2; conditions: FGFR2 enzyme 0.01 nM, ATP 100 μM
Sequence of FGFR2 (P21802 22-821): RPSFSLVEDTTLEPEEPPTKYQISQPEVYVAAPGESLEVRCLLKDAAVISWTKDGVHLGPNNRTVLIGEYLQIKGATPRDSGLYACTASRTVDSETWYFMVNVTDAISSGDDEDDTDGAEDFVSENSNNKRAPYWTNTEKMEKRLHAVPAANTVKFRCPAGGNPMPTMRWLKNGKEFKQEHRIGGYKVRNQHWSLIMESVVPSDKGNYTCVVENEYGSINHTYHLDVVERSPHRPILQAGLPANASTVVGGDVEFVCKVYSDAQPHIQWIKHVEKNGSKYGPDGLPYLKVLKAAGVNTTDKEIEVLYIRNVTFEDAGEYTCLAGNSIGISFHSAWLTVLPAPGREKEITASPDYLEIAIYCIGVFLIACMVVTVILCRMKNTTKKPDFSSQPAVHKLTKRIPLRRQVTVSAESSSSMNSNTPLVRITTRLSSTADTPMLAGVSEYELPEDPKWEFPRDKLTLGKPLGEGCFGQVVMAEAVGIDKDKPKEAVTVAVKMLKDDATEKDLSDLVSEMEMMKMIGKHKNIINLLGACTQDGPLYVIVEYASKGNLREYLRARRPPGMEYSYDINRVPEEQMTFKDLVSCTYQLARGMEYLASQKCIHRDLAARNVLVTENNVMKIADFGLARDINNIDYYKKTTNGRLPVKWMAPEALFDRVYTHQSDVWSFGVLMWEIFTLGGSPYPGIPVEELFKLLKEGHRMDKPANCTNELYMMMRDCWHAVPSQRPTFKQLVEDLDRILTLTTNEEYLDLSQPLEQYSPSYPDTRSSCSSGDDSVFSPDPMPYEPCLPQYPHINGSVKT
Experimental: as §1, §2, §3

FGFR3 = FGFR3 (Homo sapiens (Human), UniProt P22607); assay: FGFR enzymatic assay (FRET peptide phosphorylation), FGFR3; conditions: FGFR3 enzyme (Millipore), ATP 140 μM
Sequence of FGFR3 (P22607 23-806): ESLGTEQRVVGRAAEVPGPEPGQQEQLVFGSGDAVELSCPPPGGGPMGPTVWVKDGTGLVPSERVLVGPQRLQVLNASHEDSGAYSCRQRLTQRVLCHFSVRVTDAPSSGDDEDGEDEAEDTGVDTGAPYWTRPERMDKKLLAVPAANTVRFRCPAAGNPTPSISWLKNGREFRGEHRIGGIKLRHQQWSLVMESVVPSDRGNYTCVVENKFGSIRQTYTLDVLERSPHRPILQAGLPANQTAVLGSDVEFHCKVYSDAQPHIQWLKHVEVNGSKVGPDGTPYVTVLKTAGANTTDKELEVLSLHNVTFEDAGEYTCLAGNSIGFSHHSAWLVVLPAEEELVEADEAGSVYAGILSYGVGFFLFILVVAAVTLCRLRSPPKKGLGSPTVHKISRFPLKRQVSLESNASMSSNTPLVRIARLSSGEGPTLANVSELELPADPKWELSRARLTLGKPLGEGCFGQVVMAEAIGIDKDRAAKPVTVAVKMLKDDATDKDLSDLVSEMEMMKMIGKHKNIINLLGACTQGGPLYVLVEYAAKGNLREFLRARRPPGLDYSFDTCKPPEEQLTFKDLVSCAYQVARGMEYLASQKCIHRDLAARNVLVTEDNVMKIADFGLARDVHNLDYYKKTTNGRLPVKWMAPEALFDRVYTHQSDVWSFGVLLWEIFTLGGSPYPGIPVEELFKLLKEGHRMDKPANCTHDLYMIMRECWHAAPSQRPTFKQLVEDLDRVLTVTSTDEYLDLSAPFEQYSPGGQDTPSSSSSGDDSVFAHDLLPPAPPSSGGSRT
Experimental: as §1, §3

Sequence of FGFR1 (P11362 22-822): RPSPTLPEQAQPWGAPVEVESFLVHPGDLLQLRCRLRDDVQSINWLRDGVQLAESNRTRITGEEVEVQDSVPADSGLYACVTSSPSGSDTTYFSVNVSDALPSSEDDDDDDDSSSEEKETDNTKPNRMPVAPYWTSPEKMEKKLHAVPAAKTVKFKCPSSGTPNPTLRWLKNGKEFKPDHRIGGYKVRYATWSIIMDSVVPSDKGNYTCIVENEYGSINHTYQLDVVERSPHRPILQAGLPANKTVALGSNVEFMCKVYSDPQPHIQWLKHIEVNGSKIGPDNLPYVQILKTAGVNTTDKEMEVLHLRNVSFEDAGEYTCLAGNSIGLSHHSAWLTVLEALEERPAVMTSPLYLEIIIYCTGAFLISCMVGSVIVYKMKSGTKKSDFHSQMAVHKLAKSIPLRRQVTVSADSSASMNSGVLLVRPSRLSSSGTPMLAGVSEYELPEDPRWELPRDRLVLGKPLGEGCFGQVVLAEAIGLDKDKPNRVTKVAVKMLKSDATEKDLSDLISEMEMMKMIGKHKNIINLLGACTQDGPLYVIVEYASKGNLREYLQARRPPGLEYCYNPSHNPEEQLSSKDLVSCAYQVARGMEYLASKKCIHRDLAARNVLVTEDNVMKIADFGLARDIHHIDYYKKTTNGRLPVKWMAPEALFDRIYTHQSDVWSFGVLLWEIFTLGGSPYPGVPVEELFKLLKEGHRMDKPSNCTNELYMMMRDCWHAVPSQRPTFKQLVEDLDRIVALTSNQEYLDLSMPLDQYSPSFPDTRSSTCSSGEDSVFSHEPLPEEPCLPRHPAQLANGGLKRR

With `COc1cc(OC)c(F)c(N2Cc3cnc4[nH]c(CCN5CC(F)C5)cc4c3N(CCO)C2=O)c1F` [Example 210, 3-(2,6-difluoro-3,5-dimethoxyphenyl)-8-[2-(3-fluoroazetidin-1-yl)ethyl]-1-(2-hydroxyethyl)-1,3,4,7-tetrahydro-2H-pyrrolo[3′,2′:5,6]pyrido[4,3-d]pyrimidin-2-one] the IC50 (FGFR1) was less than 100 nM, the IC50 (FGFR2) was less than 100 nM and the IC50 (FGFR3) was less than 100 nM.
Compound `CCNC(=O)c1cccc(N2C(=O)N(c3c(F)c(OC)cc(OC)c3F)Cc3cnc4[nH]ncc4c32)c1F` [Example 201, 3-[3-(2,6-difluoro-3,5-dimethoxyphenyl)-2-oxo-2,3,4,7-tetrahydro-1H-pyrazolo[4′,3′:5,6]pyrido[4,3-d]pyrimidin-1-yl]-N-ethyl-2-fluorobenzamide] has an IC50 (FGFR1) of less than 100 nM, an IC50 (FGFR2) of less than 100 nM and an IC50 (FGFR3) of less than 100 nM.
`COc1cc(OC)c(F)c(N2Cc3cnc4[nH]ccc4c3N(c3cccc(F)c3F)C2=O)c1F` [Example 76, 3-(2,6-difluoro-3,5-dimethoxyphenyl)-1-(2,3-difluorophenyl)-1,3,4,7-tetrahydro-2H-pyrrolo[3′,2′:5,6]pyrido[4,3-d]pyrimidin-2-one] showed an IC50 (FGFR1) of less than 100 nM, an IC50 (FGFR2) of less than 100 nM and an IC50 (FGFR3) of less than 100 nM.
In the case of `COc1cc(OC)c(Cl)c(N2Cc3cnc4[nH]c(C(=O)N5CCN(C)CC5)cc4c3N(C)C2=O)c1` [Example 26, 3-(2-Chloro-3,5-dimethoxyphenyl)-1-methyl-8-[(4-methylpiperazin-1-yl)carbonyl]-1,3,4,7-tetrahydro-2H-pyrrolo[3′,2′:5,6]pyrido[4,3-d]pyrimidin-2-one], the IC50 (FGFR1) is reported as less than 100 nM, the IC50 (FGFR2) is reported as less than 100 nM and the IC50 (FGFR3) is reported as less than 100 nM.
`COc1cc(OC)c(Cl)c(N2Cc3cnc4c(c3N(C3CCC3)C2=O)CC(=O)N4)c1F` [Example 106, 3-(2-chloro-6-fluoro-3,5-dimethoxyphenyl)-1-cyclobutyl-3,4,7,9-tetrahydro-1H-pyrrolo[3′,2′:5,6]pyrido[4,3-d]pyrimidine-2,8-dione] gave an IC50 (FGFR1) of less than 100 nM, an IC50 (FGFR2) of less than 100 nM and an IC50 (FGFR3) of less than 100 nM.
With `COc1cc(OC)c(F)c(N2Cc3cnc4[nH]ccc4c3C3(CCCC3)C2=O)c1F` [Example 149, 7′-(2,6-difluoro-3,5-dimethoxyphenyl)-6′,7′-dihydrospiro[cyclopentane-1,9′-pyrrolo[2,3-c][2,7]naphthyridin]-8′(3′H)-one] the IC50 (FGFR1) was less than 100 nM, the IC50 (FGFR2) was less than 100 nM and the IC50 (FGFR3) was less than 100 nM.
In the case of `COc1cc(OC)c(F)c(N2Cc3cnc4[nH]ncc4c3N(c3cccc4cccnc34)C2=O)c1F` [Example 96, 3-(2,6-difluoro-3,5-dimethoxyphenyl)-1-quinolin-8-yl-1,3,4,7-tetrahydro-2H-pyrazolo[4′,3′:5,6]pyrido[4,3-d]pyrimidin-2-one], the IC50 (FGFR1) is reported as less than 100 nM, the IC50 (FGFR2) is reported as less than 100 nM and the IC50 (FGFR3) is reported as less than 100 nM.
Work on `COc1cc(OC)c(F)c(N2Cc3cnc4[nH]c(CN5CCOCC5)cc4c3N(C3CC3)C2=O)c1F` [Example 186, 1-cyclopropyl-3-(2,6-difluoro-3,5-dimethoxyphenyl)-8-(morpholin-4-ylmethyl)-1,3,4,7-tetrahydro-2H-pyrrolo[3′,2′:5,6]pyrido[4,3-d]pyrimidin-2-one] yielded an IC50 (FGFR1) of less than 100 nM, an IC50 (FGFR2) of less than 100 nM and an IC50 (FGFR3) of less than 100 nM.
`COc1cc(OC)cc(N2Cc3cnc4[nH]c(-c5cnn(C)c5)cc4c3N(C)C2=O)c1` [Example 11, 3-(3,5-Dimethoxyphenyl)-1-methyl-8-(1-methyl-1H-pyrazol-4-yl)-1,3,4,7-tetrahydro-2H-pyrrolo[3′,2′:5,6]pyrido[4,3-d]pyrimidin-2-one] gave an IC50 (FGFR1) of less than 100 nM, an IC50 (FGFR2) of less than 100 nM and an IC50 (FGFR3) of less than 100 nM.
`COc1cc(OC)c(F)c(N2Cc3cnc4[nH]ccc4c3N(c3cccnn3)C2=O)c1F` [Example 109, 3-(2,6-difluoro-3,5-dimethoxyphenyl)-1-pyridazin-3-yl-1,3,4,7-tetrahydro-2H-pyrrolo[3′,2′:5,6]pyrido[4,3-d]pyrimidin-2-one] showed an IC50 (FGFR1) of less than 100 nM, an IC50 (FGFR2) of less than 100 nM and an IC50 (FGFR3) of less than 100 nM.
Compound `COc1cc(OC)c(F)c(N2Cc3cnc4[nH]c(CN5CCC(C#N)CC5)cc4c3N(C)C2=O)c1F` [Example 132, 1-{[3-(2,6-difluoro-3,5-dimethoxyphenyl)-1-methyl-2-oxo-2,3,4,7-tetrahydro-1H-pyrrolo[3′,2′:5,6]pyrido[4,3-d]pyrimidin-8-yl]methyl}piperidine-4-carbonitrile] has an IC50 (FGFR1) of less than 100 nM, an IC50 (FGFR2) of less than 100 nM and an IC50 (FGFR3) of less than 100 nM.
`COc1cc(OC)c(F)c(N2Cc3cnc4[nH]c(Cc5cnn(C)c5)cc4c3N(C)C2=O)c1F` [Example 139, 3-(2,6-difluoro-3,5-dimethoxyphenyl)-1-methyl-8-[(1-methyl-1H-pyrazol-4-yl)methyl]-1,3,4,7-tetrahydro-2H-pyrrolo[3′,2′:5,6]pyrido[4,3-d]pyrimidin-2-one] gave an IC50 (FGFR1) of less than 100 nM, an IC50 (FGFR2) of less than 100 nM and an IC50 (FGFR3) of less than 100 nM.
With `COc1cc(OC)c(F)c(N2Cc3cnc4[nH]c(CN5CCOCC5)cc4c3N(c3cnn(C)c3)C2=O)c1F` [Example 203, 3-(2,6-difluoro-3,5-dimethoxyphenyl)-1-(1-methyl-1H-pyrazol-4-yl)-8-(morpholin-4-ylmethyl)-1,3,4,7-tetrahydro-2H-pyrrolo[3′,2′:5,6]pyrido[4,3-d]pyrimidin-2-one] the IC50 (FGFR1) was less than 100 nM, the IC50 (FGFR2) was less than 100 nM and the IC50 (FGFR3) was less than 100 nM.
`COc1cc(OC)c(F)c(N2Cc3cnc4[nH]ccc4c3N(C3CCOCC3)C2=O)c1F` [Example 46, 3-(2,6-Difluoro-3,5-dimethoxyphenyl)-1-(tetrahydro-2H-pyran-4-yl)-1,3,4,7-tetrahydro-2H-pyrrolo[3′,2′:5,6]pyrido[4,3-d]pyrimidin-2-one] was tested, and the IC50 (FGFR1) was less than 100 nM, the IC50 (FGFR2) was less than 100 nM and the IC50 (FGFR3) was less than 100 nM.
`COc1cc(OC)c(F)c(N2Cc3cnc4[nH]c(CN[C@@H]5CCOC5)cc4c3N(C)C2=O)c1F` [Example 136, 3-(2,6-difluoro-3,5-dimethoxyphenyl)-1-methyl-8-{[(3R)-tetrahydrofuran-3-ylamino]methyl}-1,3,4,7-tetrahydro-2Hpyrrolo[3′,2′:5,6]pyrido[4,3-d]pyrimidin-2-one] gave an IC50 (FGFR1) of less than 100 nM, an IC50 (FGFR2) of less than 100 nM and an IC50 (FGFR3) of less than 100 nM.
Compound `COc1cc(OC)c(F)c(N2Cc3cnc4c(c3N(c3cccc(F)c3F)C2=O)CC(=O)N4)c1F` [Example 77, 3-(2,6-difluoro-3,5-dimethoxyphenyl)-1-(2,3-difluorophenyl)-3,4,7,9-tetrahydro-1H-pyrrolo[3′,2′:5,6]pyrido[4,3-d]pyrimidine-2,8-dione] has an IC50 (FGFR2) of less than 100 nM and an IC50 (FGFR3) of less than 100 nM.
`COc1cc(OC)c(F)c(N2Cc3cnc4c(c3N(c3ccc(C#N)cc3)C2=O)CC(=O)N4)c1F` [Example 122, 4-[3-(2,6-difluoro-3,5-dimethoxyphenyl)-2,8-dioxo-2,3,4,7,8,9-hexahydro-1H-pyrrolo[3′,2′:5,6]pyrido[4,3-d]pyrimidin-1-yl]benzonitrile] was tested, and the IC50 (FGFR2) was less than 100 nM and the IC50 (FGFR3) was less than 100 nM.
With `COc1cc(OC)c(F)c(N2Cc3cnc4c(c3N(C)C2=O)C2(CC2)C(=O)N4)c1F` [Example 59, 3′-(2,6-Difluoro-3,5-dimethoxyphenyl)-1′-methyl-4′,7′-dihydrospiro[cyclopropane-1,9′-pyrrolo[3′,2′:5,6]pyrido[4,3-d]pyrimidine]-2′,8′(1′H,3′H)-dione] the IC50 (FGFR2) was less than 100 nM and the IC50 (FGFR3) was less than 100 nM.
